Results reported in PubChem BioAssay (NCI).
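Growth conditions: 96-well plates. Treatment: test compound, 48 hours, 5 concentrations. Analysis: linear interpolation between bracketing concentrations; unreached endpoints set to highest concentration. TGI marks complete inhibition of growth.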

Key:
Assay in all cases: growth of human tumour cells (NCI), 48 h
786-0 renal = tested on: 786-0 renal
A549 NSCLC = tested on: A549 NSCLC
ACHN renal = tested on: ACHN renal
CAKI-1 renal = tested on: CAKI-1 renal
CCRF-CEM leukemia = tested on: CCRF-CEM leukemia
COLO 205 colon = tested on: COLO 205 colon
DLD-1 colon = tested on: DLD-1 colon
DMS 114 small cell lung = tested on: DMS 114 small cell lung
DMS 273 small cell lung = tested on: DMS 273 small cell lung
EKVX NSCLC = tested on: EKVX NSCLC
HCC-2998 colon = tested on: HCC-2998 colon
HCT-116 colon = tested on: HCT-116 colon
HCT-15 colon = tested on: HCT-15 colon
HL-60(TB) leukemia = tested on: HL-60(TB) leukemia
HOP-18 NSCLC = tested on: HOP-18 NSCLC
HOP-62 NSCLC = tested on: HOP-62 NSCLC
HOP-92 NSCLC = tested on: HOP-92 NSCLC
HT29 colon = tested on: HT29 colon
IGROV1 ovarian = tested on: IGROV1 ovarian
K-562 leukemia = tested on: K-562 leukemia
KM12 colon = tested on: KM12 colon
KM20L2 colon = tested on: KM20L2 colon
LOX IMVI melanoma = tested on: LOX IMVI melanoma
LXFL 529 NSCLC = tested on: LXFL 529 NSCLC
M14 melanoma = tested on: M14 melanoma
M19-MEL melanoma = tested on: M19-MEL melanoma
MALME-3M melanoma = tested on: MALME-3M melanoma
MOLT-4 leukemia = tested on: MOLT-4 leukemia
NCI-H226 lung = tested on: NCI-H226 lung
NCI-H23 lung = tested on: NCI-H23 lung
NCI-H460 lung = tested on: NCI-H460 lung
NCI-H522 lung = tested on: NCI-H522 lung
OVCAR-3 ovarian = tested on: OVCAR-3 ovarian
OVCAR-4 ovarian = tested on: OVCAR-4 ovarian
OVCAR-8 ovarian = tested on: OVCAR-8 ovarian
RPMI-8226 leukemia = tested on: RPMI-8226 leukemia
RXF 393 renal = tested on: RXF 393 renal
SF-268 CNS = tested on: SF-268 CNS
SF-295 CNS = tested on: SF-295 CNS
SF-539 CNS = tested on: SF-539 CNS
SK-MEL-2 melanoma = tested on: SK-MEL-2 melanoma
SK-MEL-28 melanoma = tested on: SK-MEL-28 melanoma
SK-MEL-5 melanoma = tested on: SK-MEL-5 melanoma
SK-OV-3 ovarian = tested on: SK-OV-3 ovarian
SN12C renal = tested on: SN12C renal
SNB-19 CNS = tested on: SNB-19 CNS
SNB-75 CNS = tested on: SNB-75 CNS
SNB-78 CNS = tested on: SNB-78 CNS
SR leukemia = tested on: SR leukemia
SW-620 colon = tested on: SW-620 colon
TK-10 renal = tested on: TK-10 renal
U251 CNS = tested on: U251 CNS
UACC-62 melanoma = tested on: UACC-62 melanoma
UO-31 renal = tested on: UO-31 renal
XF 498 CNS = tested on: XF 498 CNS

Measured: TGI

COc1ccc(-c2cc(=O)c3cc4c(cc3[nH]2)OCO4)cc1OC
> 100 µM: 786-0 renal | A549 NSCLC | ACHN renal | CAKI-1 renal | CCRF-CEM leukemia | COLO 205 colon | DLD-1 colon | DMS 114 small cell lung | DMS 273 small cell lung | EKVX NSCLC | HCC-2998 colon | HCT-116 colon | HCT-15 colon | HL-60(TB) leukemia | HOP-18 NSCLC | HOP-62 NSCLC | HOP-92 NSCLC | HT29 colon | IGROV1 ovarian | K-562 leukemia | KM12 colon | KM20L2 colon | LOX IMVI melanoma | LXFL 529 NSCLC | M14 melanoma | M19-MEL melanoma | MALME-3M melanoma | MOLT-4 leukemia | NCI-H226 lung | NCI-H23 lung | NCI-H460 lung | NCI-H522 lung | OVCAR-3 ovarian | OVCAR-4 ovarian | OVCAR-8 ovarian | RPMI-8226 leukemia | RXF 393 renal | SF-268 CNS | SF-295 CNS | SF-539 CNS | SK-MEL-2 melanoma | SK-MEL-28 melanoma | SK-MEL-5 melanoma | SK-OV-3 ovarian | SN12C renal | SNB-19 CNS | SNB-75 CNS | SNB-78 CNS | SR leukemia | SW-620 colon | TK-10 renal | U251 CNS | UACC-62 melanoma | UO-31 renal | XF 498 CNS
